Reference: patent US6096779A, “Amorphous piretanide, piretanide polymorphs, process for their preparation and their use” (Hoechst Pharmaceuticals & Chemicals K.K., priority 1995, dated 2000)
Values after ≈ are worked out from the molar mass of the structure shown. Like-named read-outs stand apart in the source and are kept apart here.

What was measured:
[1] = Solubility in buffers at various pH values by dissolution tester, absorbance at 275 nm, 37° C.; format: physicochemical; conditions: for solubility in a buffer at a pH value of 1: pH 1, potassium chloride-hydrochloric acid buffer
Description: The amorphous piretanide obtained as described in Example 1 was analyzed for solubility in a buffer at various pH values by means of a dissolution tester, using piretanide form A as a control.
(§1) A sufficient amount of the amorphous piretanide to ensure supersaturation was added to 500 ml each of the buffers at various pH values as indicated below, and about 10 ml of a solution was sampled at appropriate intervals and filtered using a 0.45 μm filter. About 5 ml of the initial solution was discarded and the remainder was used as a sample solution and, if required, diluted with the same buffer. Solubility was determined by absorbance at 275 nm.
Buffer: pH 1 Potassium chloride-hydrochloric acid system
pH 3 Sodium chloride-glycine-hydrochloric acid system
pH 6.8 JP XII, second fluid
Solution temperature: 37° C.
The piretanide polymorph obtained as described in Example 6 was analyzed for solubility in a buffer at various pH values by means of a dissolution tester, using piretanide form A as a control.
as §1, with “buffer, if necessary, solubility” for “buffer. Solubility”

[2] = cited from earlier work; for solubility in a buffer at a pH value of 3: pH 3, 37° C.; for solubility at a pH value of 6.8: pH 6.8, 37° C.
[3] = Solubility in buffers at various pH values by dissolution tester, absorbance at 275 nm, 37° C.; format: physicochemical; conditions: pH 1, 37° C., vs piretanide form B
[4] = pH 3, sodium chloride-glycine-hydrochloric acid buffer

solubility in a buffer at a pH value of 1 [1] | solubility in a buffer at a pH value of 3 [1, 4] | solubility in a buffer at a pH value of 6.8 ([1]; pH 6.8, JP XII second fluid) | solubility ([1]; jp xii second fluid, pH 6.8, pH 6.8, JP XII second fluid, read-out: solubility in a buffer at a pH value of 6.8 (control, unit as printed)) | solubility ([1]; jp xii second fluid, pH 6.8, pH 6.8, JP XII second fluid, read-out: solubility in a buffer at a pH value of 6.8) | solubility ([1]; nacl-glycine-hcl buffer, pH 3, aqueous buffer, pH 3, sodium chloride-glycine-hydrochloric acid buffer, read-out: solubility in a buffer at a pH value of 3) | SMILES | solubility in a buffer at a pH value of 1 ([2]; pH 1, 37° C., background) | solubility in a buffer at a pH value of 3 ([2]; background) | solubility at a pH value of 6.8 ([2]; background) | water solubility ([2]; water, 20° C.) | solubility compared with piretanide form B, pH 1 (in words) [3]
15.2 mg/100 ml | 6.5 mg/100 ml | 901.3 mg/100 ml | – | – | – | NS(=O)(=O)c1cc(C(=O)O)cc(N2CCCC2)c1Oc1ccccc1 [amorphous piretanide, 4-phenoxy-3-(1-pyrrolidinyl)-5-sulfamoyl-benzoicacid] | – | – | – | – | –
7.5 mg/100 ml | 4.2 mg/100 ml | – | 1940 µg/mL (≈ 5.35 mM) | – | – | NS(=O)(=O)c1cc(C(=O)O)cc(N2CCCC2)c1Oc1ccccc1 [piretanide form A, 4-phenoxy-3-(1-pyrrolidinyl)-5-sulfamoyl-benzoicacid] | 7.5 mg/100 ml | 4.2 mg/100 ml | 193.8 mg/100 ml | 7.9 mg/100 ml | –
– | – | – | – | – | – | NS(=O)(=O)c1cc(C(=O)O)cc(N2CCCC2)c1Oc1ccccc1 [piretanide form B, 4-phenoxy-3-(1-pyrrolidinyl)-5-sulfamoyl-benzoicacid] | – | 6.4 mg/100 ml | 195.4 mg/100 ml | – | –
12.2 mg/100 ml | – | – | – | 9270 µg/mL (≈ 25.6 mM) | 67 µg/mL (≈ 0.185 mM) | NS(=O)(=O)c1cc(C(=O)O)cc(N2CCCC2)c1Oc1ccccc1 [piretanide polymorph, 4-phenoxy-3-(1-pyrrolidinyl)-5-sulfamoyl-benzoicacid] | – | – | – | – | approximately similar solubility to that of piretanide form B
